Data as given in PMC12649549, “Sequence Permutation Generated Lysine and Tryptophan-Rich Antimicrobial Peptides with Enhanced Therapeutic Index” (Antibiotics, 2025).
Like-named read-outs stand apart in the source and are kept apart here.

Experiments:
Gram-positive bacteria = experiment: Geometric mean MIC and therapeutic index, Gram-positive bacteria; type: cell-based; settings: Gram-positive bacteria
Procedure, shortened: (§1)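 Overnight MH cultures were regrown and diluted to 5 × 10^5 CFU/mL, then exposed to peptides at 0.78–50 µg/mL final in MH or modified LYM broth following CLSI microdilution. MICs were combined into geometric means, and TI was computed as HC10 (human red blood cells) divided by GM.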

S. aureus ATCC 25923 = tested on: S. aureus ATCC 25923
Procedure, shortened: (§2)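 MICs came from CLSI broth microdilution, with 5 × 10^5 CFU/mL bacteria exposed to peptide at final 0.78–50 µg/mL. Media were MH broth or LYM broth (pH 7.4), the latter also adjusted for salt (NaCl 50–300 mM, MgCl2 0.5–2.5 mM) or acidity (pH 4.5–6.5); triplicate independent experiments.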

S. aureus ATCC 6538 = tested on: S. aureus ATCC 6538
Procedure, shortened: as §2

[1] = tested on: A. baumannii 14B0091 (Acinetobacter sp., BCRC number 14B0091)
Procedure, shortened: as §2

[2] = tested on: A. baumannii 14B0097 (Acinetobacter sp., BCRC number 14B0097)
Procedure, shortened: as §2

[3] = tested on: A. baumannii 14B00100 (Acinetobacter sp., BCRC number 14B0100)
Procedure, shortened: as §2

[4] = tested on: Escherichia coli (ATCC 25922)
Procedure, shortened: as §2

Gram-negative bacteria = experiment: Geometric mean MIC and therapeutic index, Gram-negative bacteria; type: cell-based; settings: Gram-negative bacteria
Procedure, shortened: as §1

[5] = MH broth, MIC >50 µg/mL counted as 100 µg/mL
[6] = LYM broth, 0 mM NaCl, 16 h, 37 °C
[7] = LYM broth, 50 mM NaCl, 16 h, 37 °C
[8] = LYM broth, 100 mM NaCl, 16 h, 37 °C
[9] = LYM broth, 200 mM (NaCl), 16 h, 37 °C
[10] = LYM broth, 300 mM (NaCl), 16 h, 37 °C
[11] = MH broth, 5 × 10^5 CFU/mL, 16 h, 37 °C, repeated three times

In the case of Ac-KWRKWLKWLAKKK-NH2 [Peptide W5K01], the “GM G+ (geometric mean of the MIC values)” value (Gram-positive bacteria; [5]) is reported as 28.7 µg/mL, the “Therapeutic Index (TI) G+” value (Gram-positive bacteria; HC10/GM) is reported as 2.5 and the MIC (S. aureus ATCC 25923; [6]) is reported as 3.13 µg/mL. For the same substance, the MIC (S. aureus ATCC 25923; LYM broth, 0.5 mM MgCl2) was 3.13 µg/mL, the MIC (S. aureus ATCC 25923; LYM broth, 1.5 mM MgCl2) was 6.25 µg/mL and the MIC (S. aureus ATCC 25923; LYM broth, 2.5 mM MgCl2) was 6.25 µg/mL. The MIC (S. aureus ATCC 25923; [7]) was 6.25 µg/mL, the MIC (S. aureus ATCC 25923; [8]) was 12.5 µg/mL and the MIC (S. aureus ATCC 25923; [9]) was 50 µg/mL. It also gave an MIC (S. aureus ATCC 25923; [10]) of over 50 µg/mL, an MIC (S. aureus ATCC 25923; LYM broth, pH 4.5) of 3.13 µg/mL and an MIC (S. aureus ATCC 25923; LYM broth, pH 5.5) of 3.13 µg/mL. It also gave an MIC (S. aureus ATCC 25923; LYM broth, pH 6.5) of 1.56 µg/mL, an MIC (S. aureus ATCC 25923; [11]) of 12.5 µg/mL and an MIC (S. aureus ATCC 6538; [6]) of 3.13 µg/mL. The MIC (S. aureus ATCC 6538; LYM broth, 0.5 mM MgCl2) was 1.56 µg/mL, the MIC (S. aureus ATCC 6538; LYM broth, 1.5 mM MgCl2) was 1.56 µg/mL and the MIC (S. aureus ATCC 6538; LYM broth, 2.5 mM MgCl2) was 3.13 µg/mL. The MIC (S. aureus ATCC 6538; [7]) was 6.25 µg/mL, the MIC (S. aureus ATCC 6538; [8]) was 12.5 µg/mL and the MIC (S. aureus ATCC 6538; [9]) was 12.5 µg/mL. The MIC (S. aureus ATCC 6538; [10]) was 25 µg/mL, the MIC (S. aureus ATCC 6538; LYM broth, pH 4.5) was 3.13 µg/mL and the MIC (S. aureus ATCC 6538; LYM broth, pH 5.5) was 1.56 µg/mL. It also gave an MIC (S. aureus ATCC 6538; LYM broth, pH 6.5) of 1.56 µg/mL, an MIC (S. aureus ATCC 6538; [11]) of 12.5 µg/mL and an MIC [1, 6] of 1.56 µg/mL. The MIC ([1]; LYM broth, 0.5 mM MgCl2) was 1.56 µg/mL, the MIC ([1]; LYM broth, 1.5 mM MgCl2) was 1.56 µg/mL and the MIC ([1]; LYM broth, 2.5 mM MgCl2) was 3.13 µg/mL. It also gave an MIC [1, 7] of 3.13 µg/mL, an MIC [1, 8] of 3.13 µg/mL and an MIC [1, 9] of 3.13 µg/mL. For the same substance, the MIC [1, 10] was 12.5 µg/mL, the MIC ([1]; LYM broth, pH 4.5) was 1.56 µg/mL and the MIC ([1]; LYM broth, pH 5.5) was 1.56 µg/mL. For the same substance, the MIC ([1]; LYM broth, pH 6.5) was 1.56 µg/mL, the MIC [1, 11] was 6.25 µg/mL and the MIC [2, 6] was 1.56 µg/mL. The MIC ([2]; LYM broth, 0.5 mM MgCl2) was 1.56 µg/mL, the MIC ([2]; LYM broth, 1.5 mM MgCl2) was 3.13 µg/mL and the MIC ([2]; LYM broth, 2.5 mM MgCl2) was 3.13 µg/mL. For the same substance, the MIC [2, 7] was 1.56 µg/mL, the MIC [2, 8] was 3.13 µg/mL and the MIC [2, 9] was 3.13 µg/mL. The MIC [2, 10] was 12.5 µg/mL, the MIC ([2]; LYM broth, pH 4.5) was 3.13 µg/mL and the MIC ([2]; LYM broth, pH 5.5) was 3.13 µg/mL. The MIC ([2]; LYM broth, pH 6.5) was 1.56 µg/mL, the MIC [2, 11] was 6.25 µg/mL and the MIC [3, 6] was 1.56 µg/mL. For the same substance, the MIC ([3]; LYM broth, 0.5 mM MgCl2) was 1.56 µg/mL, the MIC ([3]; LYM broth, 1.5 mM MgCl2) was 1.56 µg/mL and the MIC ([3]; LYM broth, 2.5 mM MgCl2) was 3.13 µg/mL. The MIC [3, 7] was 1.56 µg/mL, the MIC [3, 8] was 3.13 µg/mL and the MIC [3, 9] was 3.13 µg/mL. For the same substance, the MIC [3, 10] was 6.25 µg/mL, the MIC ([3]; LYM broth, pH 4.5) was 1.56 µg/mL and the MIC ([3]; LYM broth, pH 5.5) was 1.56 µg/mL. The MIC ([3]; LYM broth, pH 6.5) was 1.56 µg/mL, the MIC [3, 11] was 6.25 µg/mL and the MIC [4, 6] was 3.13 µg/mL. It also gave an MIC ([4]; LYM broth, 0.5 mM MgCl2) of 6.25 µg/mL, an MIC ([4]; LYM broth, 1.5 mM MgCl2) of 6.25 µg/mL and an MIC ([4]; LYM broth, 2.5 mM MgCl2) of 12.5 µg/mL. The MIC [4, 7] was 6.25 µg/mL, the MIC [4, 8] was 25 µg/mL and the MIC [4, 9] was over 50 µg/mL. For the same substance, the MIC [4, 10] was over 50 µg/mL, the MIC ([4]; LYM broth, pH 4.5) was 3.13 µg/mL and the MIC ([4]; LYM broth, pH 5.5) was 3.13 µg/mL. The MIC ([4]; LYM broth, pH 6.5) was 3.13 µg/mL, the MIC [4, 11] was 12.5 µg/mL and the “GM G− (geometric mean of the MIC values)” value (Gram-negative bacteria; [5]) was 8.2 µg/mL. For the same substance, the “Therapeutic Index (TI) G−” value (Gram-negative bacteria; HC10/GM) was 8.6.
